From US20240124454A1, “TRICYCLIC COMPOUND AND USE THEREOF” (NANJING ZAIMING PHARMACEUTICAL CO., LTD., priority 2020, published 2024)
pIC50: −log10 of the molar value. Like-named read-outs stand apart in the source and are kept apart here.

Legend:
[1] = Metabolic stability in mouse liver microsomes; format: in vitro ADME; conditions: 1 μM compound, 0.5 mg/mL microsome, NADPH; for half-life at 1 μM: CD-1, mouse, liver microsomes, pH 7.4, read-out: Mouse liver microsome stability t1/2
Protocol: Test Example 4. Determination of Metabolic Stability of Compound of the Present Application in Liver Microsomes
The metabolic stability of the compound of the present application in liver microsomes was determined using the following method.
I. Experimental materials and instruments • 1. Human liver microsome (Corning 452117), beagle dog liver microsome (XENOTECH D1000), SD rat liver microsome (XENOTECH R1000), and CD-i mouse liver microsome (XENOTECH M1000) • 2. Na2HPO4 (Tianjin Guangfu Fine Chemical Research Institute 20180130) • 3. KH2PO4 (Tianjin Guangfu Fine Chemical Research Institute 20180920) • 4. MgCl2 (Tianjin Guangfu Fine Chemical Research Institute 20191216) • 5. NADPH (Solarbio 1216C022) • 6. Positive control compound verapamil (Sigma MKBV4993V) • 7. AB Sciex API4000 liquid chromatography-mass spectrometry system
1. Preparation of 100 mMV phosphate-buffered saline (PBS): 7.098 g Na2HPO4 was weighed. 500 mL pure water was added. The mixture was dissolved by sonication to give solution A. 3.400 g KH2PO4 was weighed. 250 mL pure water was added. The mixture was dissolved by sonication to give solution B. The solution A was placed in a stirrer, and the solution B was slowly added until the pH reached 7.4, so that the 100 mM PBS buffer was prepared.
2. Preparation of reaction system
The reaction system was prepared as follows:
3. The reaction system was pre-incubated in a 37° C. water bath for 10 min. 40 μL of 10 mM NADPH solution (NADPH was dissolved by 100 mM phosphate-buffered saline) was added to the reaction system with a final concentration of NADPH being 1 mM. A negative control was made by replacing the NADPH solution with 40 μL phosphate-buffered saline. The negative control was used to exclude the effect of chemical stability of the compound itself.
4. The reaction was initiated by adding 4 μL of 100 μM of the compound of the present application and verapamil, the positive control compound, to the reaction system with a final concentration of the compound being 1 μM.
5. After being uniformly mixed in a vortex oscillator, 50 μL incubation sample was respectively taken out at 0.5, 15, 30, 45, and 60 min, and the reaction was stopped by 200 μL glacial acetonitrile containing an internal standard. The sample was centrifuged at 3220 g for 45 min. 90 μL of the supernatant was transferred to a feeding plate after the centrifugation was completed, and 90 μL ultrapure water was added. The mixture was well mixed for LC-MS/MS analysis.
All data were calculated by Microsoft Excel software. The peak area was detected through an extracted ion chromatogram. The in vitro half-life (t1/2) of the compound was determined by linear fitting of the natural logarithm of compound elimination percentage over time.
In vitro half-life (t1/2) was calculated by the slope: […]
The in vitro intrinsic clearance (in μL/min/mg protein) was calculated using the following formula:
in vitro CLint=k×volume of incubation (μL)/amount of proteins (mg)
CLint was intrinsic clearance; k was an elimination rate constant; volume of incubation was the incubation volume (μL); amount of proteins was the amount of protein (mg)

HCT116 MTAP^−/− cells = experiment: Cell proliferation inhibition test (Cell-Titer Glo), HCT116 MTAP−/−; format: cell-based, human; conditions: 6 days, read-out: HCT116 MTAP−/− Antiproliferative activity IC50
Outline: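 Cells seeded at 400 per well, overnight, then exposed 6 days at 37 °C to compound from 10 μM top final concentration in 3-fold dilutions. Viability by ATP luminescence (Cell-Titer Glo), normalised to medium-only and DMSO controls, IC50 by curve fitting.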

| Structure (SMILES) | half-life at 1 μM [1] [h] | pIC50 (HCT116 MTAP^−/− cells; Homo sapiens, HCT-116, 144 h) | Mouse liver microsome stability t1/2 [1] [h] | pIC50 (HCT116 MTAP^−/− cells) |
| --- | --- | --- | --- | --- |
| Cc1ncccc1-n1c(=O)c2ncn(C)c2c2ccc(C(F)(F)F)nc21 (atropisomer, axis not shown) [Compound 20, 1-methyl-5-(2-methylpyridin-3-yl)-7-(trifluoromethyl)-1,5-dihydro-4H-imidazo[4,5-c][1,8]naphthyridin-4-one] | > 5 | 7.12 |  |  |
| Cn1cnc2c(=O)n(-c3cccnc3C3CC3)c3cc(Cl)ccc3c21 (single isomer, unassigned) [Compound 49-P2, 7-chloro-5-(2-cyclopropylpyridin-3-yl)-1-methyl-1,5-dihydro-4H-imidazo[4,5-c]quinolin-4-one] | > 5 | 7.46 |  |  |
| Cc1ncccc1-n1c(=O)c2ncoc2c2ccc(C(F)(F)F)nc21 [Compound 40, 5-(2-methylpyridin-3-yl)-7-(trifluoromethyl)oxazolo[4,5-c][1,8]naphthyridin-4(5H)-one] | > 5 | 6.92 |  |  |
| Cn1cnc2c(=O)n(-c3cccnc3C3CC3)c3cc(C(F)(F)F)ccc3c21 (single isomer, unassigned) [Compound 48-P2, 5-(2-cyclopropylpyridin-3-yl)-1-methyl-7-(trifluoromethyl)-1,5-dihydro-4H-imidazo[4,5-c]quinolin-4-one] | > 5 | 7.04 |  |  |
| Cn1cnc2c(=O)n(-c3cccc(F)c3Cl)c3cc(Cl)ccc3c21 [Compound 39, 7-chloro-5-(2-chloro-3-fluorophenyl)-1-methyl-1,5-dihydro-4H-imidazo[4,5-c]quinolin-4-one] |  |  | >5 | 6.97 |
| Cn1cnc2c(=O)n(-c3cccc(F)c3Cl)c3nc(C(F)(F)F)ccc3c21 (atropisomer, axis not shown) [Compound 25, 5-(2-chloro-3-fluorophenyl)-1-methyl-7-(trifluoromethyl)-1,5-dihydro-4H-imidazo[4,5-c][1,8]naphthyridin-4-one] | 4.78 | 6.81 |  |  |
| Cn1cnc2c(=O)n(-c3cccc(F)c3Cl)c3nc(C(F)(F)F)ccc3c21 (single isomer, unassigned) [Compound 25-P2, 5-(2-chloro-3-fluorophenyl)-1-methyl-7-(trifluoromethyl)-1,5-dihydro-4H-imidazo[4,5-c][1,8]naphthyridin-4-one] | > 5 | 7.15 |  |  |
| O=c1c2ncoc2c2ccc(C(F)(F)F)nc2n1-c1cccnc1C1CC1 (single isomer, unassigned) [Compound 81-P2, 5-(2-cyclopropylpyridin-3-yl)-7-(trifluoromethyl)oxazolo[4,5-c][1,8]naphthyridin-4(5H)-one] |  | 6.96 |  |  |
| Cn1cnc2c(=O)n(-c3cccnc3C3CC3)c3nc(C(F)(F)F)ccc3c21 (single isomer, unassigned) [Compound 42-P2, 5-(2-cyclopropylpyridin-3-yl)-1-methyl-7-(trifluoromethyl)-1,5-dihydro-4H-imidazo[4,5-c][1,8]naphthyridin-4-one] | 1.86 | 7.35 |  |  |
| Cn1cnc2c(=O)n(-c3cccnc3C(F)(F)F)c3nc(C(F)(F)F)ccc3c21 (single isomer, unassigned) [Compound 41-P2, 1-methyl-7-(trifluoromethyl)-5-(2-(trifluoromethyl)pyridin-3-yl)-1,5-dihydro-4H-imidazo[4,5-c][1,8]naphthyridin-4-one] | > 5 | 7.10 |  |  |
| Cc1ncccc1-n1c(=O)c2ncn(C)c2c2ccc(C(F)(F)F)cc21 [Compound 45, 1-methyl-5-(2-methylpyridin-3-yl)-7-(trifluoromethyl)-1,5-dihydro-4H-imidazo[4,5-c]quinolin-4-one] | > 5 | 6.87 |  |  |
